Reference: patent publication US7098219B2, “Inhibitors of cellular efflux pumps of microbes” (Wockhart Limited, priority 2000, dated 2006)

Legend:
[1] = test system: Pseudomonas aeruginosa 23587; assay: Antibiotic diffusion assay, levofloxacin plate versus water control plate; assay type: cell-based; conditions: zone of inhibition in levofloxacin (5 mcg/ml) plate minus water control plate; Mueller Hinton Agar, 35° C. 20 hours
Experimental: Testing method for Inhibition of the Efflux Pumps of Pseudomonas aeruzinosa 23587, E. coli 2051, Streptococcus pneumoniae 3514 and Streptococcus pyozenus 26-00
Antibiotic Diffusion Assay
The activity of efflux pump inhibitor was also assessed using an antibiotic diffusion assay. For this assay Pseudomonas aeruginosa 23587 is used. Pseudomonas aeruginosa 23587 is a clinical isolate containing multiple efflux pumps which can be mexAB, mexCD, mexEF but not limited to mex classification only. Pseudomonas aeruginosa are grown in tryptic soya broth for 20 hours at 35° C. Two antibiotic assay plates are prepared in Mueller Hinton Agar using above inoculum. The bacterial count in a plate is 1×10^6 cells/ml. In one of the plates, levofloxacin is incorporated at 5 mcg/ml, while in the control plate an equivalent amount of water is added. […]. The plates are incubated at 35° C. for 20 hours and the zone of inhibition was recorded in mm (table 2). The difference in the diameter of zone of inhibition was calculated by subtracting from the diameter of the zone of inhibition in the levofloxacin containing plate the diameter of the zone of inhibition in the water containing control plate. Example, if the diameter of the zone of inhibition in the levofloxacin plate is X mm and the diameter of the zone of inhibition in the control plate is Y mm, the difference Z=X−Y and is a measure of the activity of the efflux pump inhibitor.

[2] = test system: Mef Efflux Pump of Streptococcus pneumoniae 3514 and Streptococcus pyogenes 26-00; assay: Two plate diffusion assay for macrolide (Mef) efflux pump inhibitors, azithromycin plate versus control plate; assay type: cell-based; conditions: zone of inhibition in antibiotic plate (method: azithromycin 0.5 mcg/ml; footnote: levofloxacin) minus water control plate; strain not given

Row | Compound | Difference in Zone diameter Z1 (mm) [1] | Difference in Zone diameter Z1 (mm) [2]
1 | C[C@H](N)C(=O)OC1CCN(c2c(F)cc3c(=O)c(C(=O)O)cn4c3c2CC[C@@H]4C)CC1.Cl [Example 30 (P. aeruginosa), (S)-(−)-9-Fluoro-6,7-dihydro-8-{4′-(L-alanyloxy)piperidin-1-yl}-5-methyl-1-oxo-1H,5H-benzo[i,j]quinolizine-2-carboxylic acid hydrochloride] | 9 mm | 
2 | COC1CCN(c2cc3c(c(C)c2F)c(=O)c(C(=O)O)cn3C2CC2)CC1 [Example 1 (P. aeruginosa), 1-Cyclopropyl-6-fluoro-1,4-dihydro-5-methyl-7-(4′-methoxypiperidin-1-yl)-4-oxo-quinoline-3-carboxylic acid] | 13 mm | 
3 | CC1CN(c2c(F)cc3c(=O)c(C(=O)O)cn4c3c2CCC4C)CCC1O (racemic) [Example 34 (P. aeruginosa), (RS)-(+)-9-Fluoro-6,7-dihydro-8-(cis-4′-hydroxy-3′-methylpiperidin-1-yl}-5-methyl-1H,5H-benzo[i,j]quinolizine-2-carboxylic acid] | 6 mm | 
4 | Nc1c(F)c(N2CCC(N)C2)c(F)c2c1c(=O)c(C(=O)O)cn2-c1ccc(F)cc1F (stereo not shown) [Example 16 (P. aeruginosa), 5-Amino-1-(2′,4′-difluorophenyl)-6,8-difluoro-1,4-dihydro-7-(3-aminopyrrolidine-1-yl)-4-oxo-quinoline-3-carboxylic acid] | 3 mm | 
5 | CCN1CCN(c2cc3c(cc2F)c(=O)c(C(=O)O)cn3C2CC2)CC1C (stereo not shown) [Example 13 (P. aeruginosa), 1-Cyclopropyl-6-fluoro-1,4-dihydro-7-(4′-ethyl-3′-methylpiperazin-1-yl)-4-oxo-quinoline-3-carboxylic acid] | 4 mm | 
6 | CCNC1CCN(c2c(F)c(N)c3c(=O)c(C(=O)O)cn(C4CC4)c3c2OC)CC1(C)C (stereo not shown) [Example 5 (P. aeruginosa), 5-Amino-1-cyclopropyl-6-fluoro-8-methoxy-1,4-dihydro-7-{3′,3′-dimethyl-4′-ethylaminopiperidin-1-yl}-4-oxo-quinoline-3-carboxylic acid] | 3 mm | 
7 | C[C@@H]1CCc2c(N3CCC(OC(=O)[C@H](N)Cc4ccccc4)CC3)c(F)cc3c(=O)c(C(=O)O)cn1c23.Cl (racemic) [Example 26 (P. aeruginosa), (RS)-(±)-9-Fuoro-6,7-dihydro-8-{4′-(D-phenylalaninoxy)piperidin-1-yl}-5-methyl-1-oxo-1H,5H-benzo[i,j]quinolizine-2-carboxylic acid hydrochloride] | 12 mm | 
8 | NCC1CN(c2c(F)c(N)c3c(=O)c(C(=O)O)cn(C4CC4)c3c2F)CCC1O (stereo not shown) [Example 11 (P. aeruginosa), 5-Amino-1-(cyclopropyl)-6,8-difluoro-1,4-dihydro-7-(3′-aminomethyl-4′-hydroxy-piperidin-1-yl)-4-oxo-quinoline-3-carboxylic acid] | 3 mm | 
9 | COc1c(N2CCC(N(C)C)CC2)c(F)cc2c(=O)c(C(=O)O)cn(C3CC3)c12 [Example 7 (P. aeruginosa), 1-Cyclopropyl-6-fluoro-8-methoxy-1,4-dihydro-7-{4′-dimethylaminopiperidin-1-yl}-4-oxo-quinoline-3-carboxylic acid] | 5 mm | 
10 | CNC1CCN(c2c(F)c(N)c3c(=O)c(C(=O)O)cn(C4CC4)c3c2OC)CC1(C)C (stereo not shown) [Example 2 (Mef), 5-Amino-1-cyclopropyl-6-fluoro-8-methoxy-1,4-dihydro-7-{4′-(methylamino)-3′,3′-dimethylpiperidin-1-yl}-4-oxo-quinoline-3-carboxylic acid] |  | 8 mm
11 | C[C@H]1CCOc2c(N3CCC(N)CC3)c(F)cc3c(=O)c(C(=O)O)cn1c23.Cl [Example 40 (Mef), 10-Fluoro-11-(4-aminopiperidin-1-yl)-3,4-dihydro-4(S)-methyl-8-oxo-2H,8H-pyrido[1,2,3-ef]-1,5-benzoxazepin-7-carboxylic acid, hydrochloride] |  | 13 mm
12 | CCOC(=O)c1cn(-c2ccc(F)cc2F)c2nc(N3CCC(N)C(CC)C3)c(F)cc2c1=O (stereo not shown) [Example 36 (Mef), Ethyl 1-(2,4-difluorophenyl)-6-fluoro-1,4-dihydro-7-(4-amino-3-ethylpiperidin-1-yl)-4-oxo-1,8-naphthyridine-3-carboxylate] |  | 10 mm
13 | (RS)-(±)-6,7-dihydro-8-(cis-4′-hydroxy-3′-methylpiperidin-1-yl)-5-methyl-1-oxo-1H,5H-benzo[i,j]quinolizine-2-carboxylic acid [Example 42 (Mef)] |  | 8 mm
14 | COc1c(N2CCC(NC3CC3)CC2)c(F)c(N)c2c(=O)c(C(=O)O)cn(C3CC3)c12 [Example 33 (Mef), 5-Amino-1-cyclopropyl-6-fluoro-8-methoxy-1,4-dihydro-7-(4′-cyclopropylaminopiperidin-1-yl)-4-oxo-quinoline-3-carboxylic acid] |  | 10 mm
15 | CNC1CCN(c2cc3c(c(C)c2F)c(=O)c(C(=O)O)cn3-c2ccc(F)cc2F)CC1 [Example 19 (Mef), 1-(2′,4′-Difluorophenyl)-6-fluoro-5-methyl-1,4-dihydro-7-(4′-methylaminopiperidin-1′-yl)-4-oxo-quinoline-3-carboxylic acid] |  | 8 mm
16 | Cc1c(F)c(N2CCC(N)CC2)cc2c1c(=O)c(C(=O)O)cn2-c1ccc(F)cc1F [Example 18 (Mef), 1-(2′,4′-Difluorophenyl)-6-fluoro-5-methyl-1,4-dihydro-7-(4′-aminopiperidin-1′-yl)-4-oxo-quinoline-3-carboxylic acid] |  | 8 mm
17 | CCNC1CCN(c2c(F)c(C)c3c(=O)c(C(=O)O)cn(C4CC4)c3c2F)CC1(C)C (stereo not shown) [Example 28 (Mef), 1-Cyclopropyl-6,8-difluoro-5-methyl-1,4-dihydro-7-(3′,3′-dimethyl-4′-ethylaminopiperidin-1-yl)-4-oxo-quinoline-3-carboxylic acid] |  | 10 mm
18 | CN1CCN(c2cc3c(cc2F)c(=O)c(C(=O)O)cn3-c2cccc(F)c2)CC1 [Example 16 (Mef), 1-(3′-Fluorophenyl)-6-fluoro-1,4-dihydro-7-(4′-methylpiperazin-1′-yl)-4-oxo-quinoline-3-carboxylic acid] |  | 10 mm
19 | O=C(O)c1cn(-c2ccc(F)cc2F)c2nc(N3C[C@@H]4[C@H](C3)[C@H]4NCc3ccccc3)c(F)cc2c1=O [Example 23 (Mef), 1-(2,4-Difluorophenl)-6-fluoro-1,4-dihydro-7-{(1∝,5∝,6∝)-6-amino-N-benzyl-3-azabicyclo[3.1.0]hex-6-yl}-4-oxo-1,8-naphthyridine-3-carboxylic acid] |  | 15 mm
20 | COc1c(N2CCC(NC(=O)[C@@H](N)CC(=O)O)C(C)(C)C2)c(F)cc2c(=O)c(C(=O)O)cn(C3CC3)c12.Cl (stereo partly shown) [Example 11 (Mef), 1-Cyclopropyl-6-fluoro-8-methoxy-1,4-dihydro-7-(4′-(L)-aspartylamino-3′,3′-dimethylpiperidin-1-yl}-4-oxo-quinoline-3-carboxylic acid hydrochloride] |  | 6 mm
21 | O=C(O)c1cn(C2CC2)c2nc(N3CC4C(C3)C4NCc3ccccc3)c(F)cc2c1=O (stereo not shown) [Example 21 (Mef), 1-Cyclopropyl-6-fluoro-1,4-dihydro-7-{(1∝,5∝,6∝)-6-amino-N-benzyl-3-azabicyclo[3.1.0]hex-6-yl}-4-oxo-1,8-naphthyridine-3-carboxylic acid] |  | 17 mm
22 | NC1CCN(c2nc3c(cc2F)c(=O)c(C(=O)O)cn3C2CC2)C1 (stereo not shown) [Example 20 (Mef)] |  | 10 mm
23 | CC1CN(c2c(F)c(N)c3c(=O)c(C(=O)O)cn(C4CC4)c3c2F)CCC1N (stereo not shown) [Example 13 (Mef), 5-Amino-1-cyclopropyl-6,8-difluoro-1,4-dihydro-7-(4′-amino-3′-methylpiperidin-1-yl)-4-oxo-quinoline-3-carboxylic acid] |  | 20 mm
24 | CCOC(=O)c1cn(-c2ccc(F)cc2F)c2nc(N3CCC(N)C(C)(C)C3)c(F)c(C)c2c1=O (stereo not shown) [Example 38 (Mef), Ethyl 1-(2,4-difluorophenyl)-6-fluoro-5-methyl-1,4-dihydro-7-(4-amino-3,3-dimethylpiperidin-1-yl)-4-oxo-1,8-naphthyridine-3-carboxylate] |  | 10 mm
25 | CCOC(=O)COC(=O)c1cn(C2CC2)c2c(OC)c(N3CCC(N)C(C)(C)C3)c(F)cc2c1=O (stereo not shown) [Example 5 (Mef), Ethoxycarbony methyl 1-Cyclopropyl-6-fluoro-8-methoxy-1,4-dihydro-7-(4′-amino-3′,3′-dimethylpiperidin-1-yl)-4-oxo-quinoline-3-carboxylate] |  | 13 mm
